Measured values: BindingDB's records for patent US11787780 (Corcept Therapeutics, 2023)

Molecular target: T1, Glucocorticoid receptor (Homo sapiens, UniProt P04150)
T1 sequence (P04150 whole entry): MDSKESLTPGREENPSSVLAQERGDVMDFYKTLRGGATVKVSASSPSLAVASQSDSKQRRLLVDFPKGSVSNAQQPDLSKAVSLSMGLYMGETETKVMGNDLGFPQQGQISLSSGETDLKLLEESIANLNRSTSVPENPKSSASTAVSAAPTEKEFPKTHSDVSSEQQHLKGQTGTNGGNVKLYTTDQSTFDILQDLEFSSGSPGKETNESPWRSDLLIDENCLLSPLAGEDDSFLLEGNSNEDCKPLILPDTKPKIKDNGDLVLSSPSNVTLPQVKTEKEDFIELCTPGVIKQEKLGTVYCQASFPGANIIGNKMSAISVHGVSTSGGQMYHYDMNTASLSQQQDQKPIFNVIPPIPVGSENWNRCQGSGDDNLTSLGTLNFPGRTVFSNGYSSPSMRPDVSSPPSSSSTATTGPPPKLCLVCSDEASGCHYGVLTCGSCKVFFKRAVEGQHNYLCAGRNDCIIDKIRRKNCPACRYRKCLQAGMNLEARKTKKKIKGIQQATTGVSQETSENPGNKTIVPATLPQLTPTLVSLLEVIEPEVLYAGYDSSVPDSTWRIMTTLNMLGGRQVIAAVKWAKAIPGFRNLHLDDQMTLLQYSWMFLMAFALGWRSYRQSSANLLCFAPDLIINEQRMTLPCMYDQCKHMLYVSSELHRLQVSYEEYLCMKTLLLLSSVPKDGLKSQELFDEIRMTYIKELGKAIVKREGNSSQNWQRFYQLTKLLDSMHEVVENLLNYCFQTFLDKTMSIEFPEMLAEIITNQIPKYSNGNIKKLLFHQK
Test: GR Binding Assay
Protocol: Binding of test compounds to the glucocorticoid receptor (GR) is determined using a fluorescence polarisation (FP) assay utilising a recombinant ligand binding domain (LBD) of GR. The test compounds are assessed by their ability to displace a fluorescently tagged ligand and detection of the resulting decrease in fluorescence polarisation.

| IC50 | Compound |
| --- | --- |
| 0.013 µM | CCCn1cc(S(=O)(=O)N2CCC(Cc3ccccn3)(c3cc4cnn(-c5ccc(F)cc5)c4cc3C)C2)cn1 (stereo not drawn) [US11787780, Example 152] |
| 0.012 µM | Cc1cc2c(cnn2-c2ccc(=O)n(C)c2)cc1C1(Cc2ccccc2)CCN(S(=O)(=O)c2cnn(C(C)C)n2)C1 (stereo not drawn) [US11787780, Example 320] |
| 0.18 µM | Cc1cc2c(cnn2-c2ccc(F)cc2)cc1C1(Cc2ccccc2)CC(O)N(Cc2ccccc2)C1=O (stereo not drawn) [US11787780, Example 336] |
